Source: patent US8088806B2 (Achillion Pharmaceuticals, Inc., priority 2005, dated 2012)

The compounds below were run on HCV replicon (assay: Replicon based assay of HCV replication inhibition (NPT ELISA)). Conditions: Hepatitis C virus, replicon based assay of HCV replication inhibition; Table II; read-out: Activity.
Assay type: cell-based, Hepatitis C virus
How it was run: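 Huh-7 cells carrying a bicistronic HCV replicon (neo, EMCV-IRES-driven NS3–NS5B) treated overnight after seeding with usually 6 concentrations, 10 to 0.03 micromolar, for three days at 37° C without G418. Replication read as NPT level by captured ELISA; matched-DMSO wells and interferon alpha as controls.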

Row | SMILES | EC50 [µM]
1 | Cc1sc(Nc2cccc(C(F)(F)F)c2)nc1-c1ccc(CC(=O)O)cc1 [compound 343, 2-(4-(5-methyl-2-(3-(trifluoromethyl)phenylamino)thiazol-4-yl)phenyl)acetic acid] | > 10
2 | Cc1sc(Nc2cccnc2)nc1-c1ccc(CC(=O)O)cc1 [compound 344, 2-(4-(5-methyl-2-(pyridin-3-ylamino)thiazol-4-yl)phenyl)acetic acid] | > 10
3 | Cc1sc(NC(=O)c2ccccc2)nc1-c1ccc(CC(=O)O)cc1 [compound 345, 2-(4-(2-benzamido-5-methylthiazol-4-yl)phenyl)acetic acid] | > 10
4 | COc1ccc(CNc2nc(-c3ccc(CC(=O)O)cc3)c(C)s2)cc1 [compound 346, 2-(4-(2-(4-methoxybenzylamino)-5-methylthiazol-4-yl)phenyl)acetic acid] | > 10
5 | CCOC(=O)c1ccc(Nc2nc(-c3ccc(F)cc3)c(C)s2)cc1 [compound 347, ethyl 4-(4-(4-fluorophenyl)-5-mthylthiazol-2-ylamino)benzoate] | > 10
6 | Cc1sc(Nc2cccc(C(F)(F)F)c2)nc1-c1ccc(F)cc1 [compound 348, 4-(4-fluorophenyl)-5-methyl-N-(3-(trifluoromethyl)phenyl)thia-zol-2-amine] | 1 to 10
7 | Cc1sc(Nc2cccnc2)nc1-c1ccc(F)cc1 [compound 349, N-(4-(4-fluorophenyl)-5-methylthiazol-2-yl)pyridin-3-amine] | > 10
8 | Cc1sc(NC(=O)c2ccccc2)nc1-c1ccc(F)cc1 [compound 350, N-(4-(4-fluorophenyl)-5-methylthiazol-2-yl)benzamide] | > 10
9 | COc1ccc(CNc2nc(-c3ccc(F)cc3)c(C)s2)cc1 [compound 351, N-(4-methoxybenzyl)-4-(4-fluorophenyl)-5-methylthiazol-2-amine] | > 10
10 | CCCCCCCOc1ccc(Nc2nc(-c3ccccc3)c(-c3ccccc3)s2)cc1 [compound 352, N-(4-(heptyloxy)phenyl)-4,5-diphenylthiazol-2-amine] | > 10
11 | CCCCCCCCOc1ccc(Nc2nc(-c3ccc(OC)cc3)c(-c3ccc(OC)cc3)s2)cc1 [compound 353, 4,5-bis(4-methoxyphenyl)-N-(4-(octyloxy)phenyl)thiazol-2-amine] | 1 to 10
12 | CCCCCCCOc1ccc(Nc2nc(-c3ccc(OC)cc3)c(-c3ccc(OC)cc3)s2)cc1 [compound 355, N-(4-(heptyloxy)phenyl)-4,5-bis(4-methoxyphenyl)thiazol-2-amine] | > 10
13 | COc1ccc(-c2nc(Nc3ccc(F)cc3)sc2-c2ccc(OC)cc2)cc1 [compound 356, N-(4-fluorophenyl)-4,5-bis(4-methoxyphenyl)thiazol-2-amine] | 1 to 10
14 | COc1ccc(-c2nc(Nc3cc(OC)ccc3OC)sc2-c2ccc(OC)cc2)cc1 [compound 357, N-(2,5-dimthoxyphenyl)-4,5-bis(4-methoxyphenyl)thiazol-2-amine] | > 10
15 | CCCCCOc1ccc(Nc2nc(-c3cccs3)cs2)cc1C(F)(F)F [compound 358, N-(4-(pentyloxy)-3-(trifluoromethyl)phenyl)-4-(thiophen-2-yl)thiazol-2-amine] | < 1
16 | CCCCCCCOc1ccc(Nc2nc(-c3cccs3)cs2)cc1 [compound 359, N-(4-(heptyloxy)phenyl)-4-(thiophen-2-yl)thiazol-2-amine] | < 1
17 | CCCCCCCCOc1ccc(Nc2nc(-c3cccs3)cs2)cc1 [compound 360, N-(4-(octyloxy)phenyl)-4-(thiophen-2-yl)thiazol-2-amine] | < 1
18 | CCCCCOc1ccc(Nc2nc(-c3cc4cnccc4o3)cs2)cc1C(F)(F)F [compound 361, 4-(furo[3,2-c]pyridin-2-yl)-N-(4-(pentyloxy)-3-(trifluoromethyl)phenyl)thia-zol-2-amine] | < 1
19 | CCCCCCCOc1ccc(Nc2nc(-c3cc4cnccc4o3)cs2)cc1 [compound 362, 4-(furo[3,2-c]pyridin-2-yl)-N-(4-(heptyloxy)phenyl)thiazol-2-amine] | 1 to 10
20 | c1ccc(Oc2cccc(Nc3nc(-c4cc5cnccc5o4)cs3)c2)cc1 [compound 363, 4-(furo[3,2-c]pyridin-2-yl)-N-(3-phenoxyphenyl)thiazol-2-amine] | > 10
21 | CCCCCOc1ccc(Nc2nc(-c3ccncc3)cs2)cc1C(F)(F)F [compound 364, N-(4-(pentyloxy)-3-(trifluoromethyl)phenyl)-4-(pyridin-4-yl)thiazol-2-amine] | < 1
22 | CCCCCCCOc1ccc(Nc2nc(-c3ccncc3)cs2)cc1 [compound 365, N-(4-(heptyloxy)phenyl)-4-(pyridin-4-yl)thiazol-2-amine] | < 1
23 | c1ccc(Oc2cccc(Nc3nc(-c4ccncc4)cs3)c2)cc1 [compound 366, N-(3-phenoxyphenyl)-4-(pyridin-4-yl)thiazol-2-amine] | < 1
24 | CCCCCOc1ccc(Nc2nc(C3(C(=O)OCC)CC3)cs2)cc1C(F)(F)F [compound 367, ethyl 1-(2-(4-(pentyloxy)-3-(trifluoromethyl)pheenyl-amino)thiazol-4-yl)cyclopropanecarboxylate] | > 10

Row | SMILES | EC50 [µM]
25 | CCCCCOc1ccc(Nc2nc(N3CCCC3C(=O)O)cs2)cc1C(F)(F)F (centres unmarked) [compound 368, 1-(2-(4-(pentyloxy)-3-(trifluoromethyl)phenyl-amino)thiazol-4-yl)pyrrolidine-2-carboxylic acid] | 1 to 10
26 | CCCCCCCOc1ccc(Nc2nc(-c3ccc(C)nc3)cs2)cc1 [compound 369, N-(4-(heptyloxy)phenyl)-4-(6-methylpyridin-3-yl)thiazol-2-amine] | < 1
27 | CCCCCCCCOc1ccc(Nc2nc(-c3ccc(C)nc3)cs2)cc1 [compound 370, 4-(6-methylpyridin-3-yl)-N-(4-(octyloxy)phenyl)thiazol-2-amine] | < 1
28 | CCCCCOc1ccc(Nc2nc(-c3ccccc3O)cs2)cc1C(F)(F)F [compound 371, 2-(2-(4-(pentyloxy)-3-(trifluoromeethyl)phenyl-amino)thiazol-4-yl)phenol] | 1 to 10
29 | CCCCCCCOc1ccc(Nc2nc(-c3ccccc3O)cs2)cc1 [compound 372, 2-(2-(4-(heptyloxy)phenylamino)thia-zol-4-yl)phenol] | < 1
30 | CCCCCCCCOc1ccc(Nc2nc(-c3ccccc3O)cs2)cc1 [compound 373, 2-(2-(4-(octyloxy)phenylamino)thia-zol-4-yl)phenol] | < 1
31 | CCCCCOc1ccc(Nc2nc(-c3ccccc3OC)cs2)cc1C(F)(F)F [compound 374, 4-(2-methoxyphenyl)-N-(4-(pentyloxy)-3-(trifluoromethyl)phenyl)thia-zol-2-amine] | 1 to 10
32 | CCCCCCCOc1ccc(Nc2nc(-c3ccccc3OC)cs2)cc1 [compound 375, N-(4-(heptyloxy)phenyl)-4-(2-methoxyphenyl)thiazol-2-amine] | < 1
33 | CCCCCCCCOc1ccc(Nc2nc(-c3ccccc3OC)cs2)cc1 [compound 376, 4-(2-methoxyphenyl)-N-(4-(octyloxy)phenyl)thiazol-2-amine] | < 1
34 | CCCCCOc1ccc(Nc2nc(-c3ccc(O)nc3)cs2)cc1C(F)(F)F [compound 377, 5-(2-(4-(pentyloxy)-3-(trifluoromethyl)phenyl-amino)thiazol-4-yl)pyridin-2-ol] | < 1
35 | CCCCCOc1ccc(Nc2nc(-c3ccc(OC)nc3)cs2)cc1C(F)(F)F [compound 378, 4-(6-methoxypyridin-3-yl)-N-(4-(pentyloxy)-3-(trifluoromethyl)phenyl)thia-zol-2-amine] | < 1
36 | CCCCCN(C)c1ccc(Nc2nc(-c3cccnc3)cs2)cc1C(F)(F)F [compound 379, N^1-methyl-N^1-pentyl-N^4-(4-(pyridin-3-yl)thiazol-2-yl)-2-(trifluoromethyl)benzene-1,4-diamine] | < 1
37 | CCCCCCCCOc1ccc(Nc2nc(-c3ccc(Br)cc3)cs2)cc1 [compound 382, 4-(4-bromophenyl)-N-(4-(octyloxy)phenyl)thiazol-2-amine] | < 1
38 | CCCCCCCCOc1ccc(Nc2nc(-c3ccc4[nH]c(=O)oc4c3)cs2)cc1 [compound 383, 6-(2-(4-(octyloxy)phenylamino)thia-zol-4-yl)benzo[d]oxazol-2(3H)-one] | < 1
39 | CCCCCCCCOc1ccc(Nc2nc(-c3cccc(C(=O)O)c3)cs2)cc1 [compound 384, 3-(2-(4-(octyloxy)phenylamino)thia-zol-4-yl)benzoic acid] | < 1
40 | CCCCCCCCOc1ccc(Nc2nc(-c3ccccn3)cs2)cc1 [compound 385, N-(4-(octyloxy)phenyl)-4-(pyridin-2-yl)thiazol-2-amine] | < 1
41 | CCCCCCCCOc1ccc(Nc2nc(-c3c[nH]c4ccccc34)cs2)cc1 [compound 386, 4-(1H-indol-3-yl)-N-(4-(octyloxy)pheenyl)thiazol-2-amine] | < 1
42 | CCCCCCCCOc1ccc(Nc2nc(-c3ccc(-c4ccccn4)s3)cs2)cc1 [compound 387, N-(4-(octyloxy)phenyl)-4-(5-(pyridin-2-yl)thiophen-2-yl)thiazol-2-amine] | < 1
43 | CCCCCCCCOc1ccc(Nc2nc(-c3nc4ccccc4s3)cs2)cc1 [compound 388, 4-(benzo[d]thiazol-2-yl)-N-(4-(octyloxy)phenyl)thiazol-2-amine] | < 1
44 | CCCCCCCCOc1ccc(Nc2nc(-c3cc4ccccc4o3)cs2)cc1 [compound 389] | < 1
45 | CCCCCCCCOc1ccc(Nc2nc(-c3sc(-c4cnccn4)nc3C)cs2)cc1 [compound 390, 4-(4-methyl-2-(pyrazin-2-yl)thiazol-5-yl)-N-(4-(octyloxy)phenyl)thiazol-2-amine] | < 1
46 | CCCCCCCCOc1ccc(Nc2nc(CC)cs2)cc1 [compound 391, 4-ethyl-N-(4-(octyloxy)phenyl)thiazol-2-amine] | < 1
47 | CCCCCCCOc1ccc(Nc2nc(-c3ccc(O)c(O)c3)cs2)cc1 [compound 392, 4-(2-(4-(heptyloxy)phenylamino)thia-zol-4-yl)benzene-1,2-diol] | < 1
